Source: patent US12077503B2, “Substituted cyclic amides and their use as herbicides” (FMC CORPORATION, priority 2015, dated 2024)

Columns and labels:
Type in all cases: in vivo
[1] = system: giant foxtail (Setaria faberii); experiment: Test A preemergence; conditions: for Plant response rating, Foxtail, Giant: 125 g ai/ha, preemergence, 0 to 100 scale (0 no effect, 100 complete control); for Foxtail, Giant plant response rating (0 to 100 scale, 0 is no effect, 100 is complete control): Preemergence, 500 g ai/ha, visual injury approx. 10 d
Method in brief: (§1)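 Visual injury, scored on a 0–100 scale relative to untreated controls, was recorded about 10 d after application. Treatments were a preemergence soil spray over planted seeds or a postemergence spray on plants at the one- to two-leaf stage, 2 to 10 cm tall, all in loam soil–sand blend in the greenhouse.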

[2] = system: Kochia (Kochia scoparia); experiment: Test A preemergence; conditions: for Plant response rating, Kochia: 125 g ai/ha, preemergence, 0 to 100 scale (0 no effect, 100 complete control); for Kochia plant response rating (0 to 100 scale, 0 is no effect, 100 is complete control): Preemergence, 500 g ai/ha, visual injury approx. 10 d
Method in brief: as §1

[3] = system: ragweed (common ragweed, Ambrosia elatior); experiment: Test A preemergence; conditions: for Ragweed plant response rating (0 to 100 scale, 0 is no effect, 100 is complete control): Preemergence, 500 g ai/ha, visual injury approx. 10 d; for Plant response rating, Ragweed: 125 g ai/ha, preemergence, 0 to 100 scale (0 no effect, 100 complete control)
Method in brief: as §1

[4] = system: barnyardgrass (Echinochloa crus-galli); experiment: Test A preemergence; conditions: for Plant response rating, Barnyardgrass: 125 g ai/ha, preemergence, 0 to 100 scale (0 no effect, 100 complete control); for Barnyardgrass plant response rating (0 to 100 scale, 0 is no effect, 100 is complete control): Preemergence, 500 g ai/ha, visual injury approx. 10 d
Method in brief: as §1

[5] = system: pigweed (Amaranthus retroflexus); experiment: Test A preemergence; conditions: for Plant response rating, Pigweed: 125 g ai/ha, preemergence, 0 to 100 scale (0 no effect, 100 complete control); for Pigweed plant response rating (0 to 100 scale, 0 is no effect, 100 is complete control): Preemergence, 500 g ai/ha, visual injury approx. 10 d
[6] = system: ryegrass, Italian (Italian ryegrass, Lolium multiflorum); experiment: Test A preemergence; conditions: for Plant response rating, Ryegrass, Italian: 125 g ai/ha, preemergence, 0 to 100 scale (0 no effect, 100 complete control); for Ryegrass, Italian plant response rating (0 to 100 scale, 0 is no effect, 100 is complete control): Preemergence, 500 g ai/ha, visual injury approx. 10 d
Method in brief: as §1

[7] = system: ducksalad (Heteranthera limosa); experiment: Test B flooded paddy test; conditions: Flood, 0 to 100 scale where 0 is no effect and 100 is complete control, 13 to 15 d
Method in brief: (§2)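 Visual ratings (0 none to 100 complete control) are relative to untreated plants, taken 13–15 d after treatment in a greenhouse. Test material went straight into floodwater standing 3 cm above the soil, kept constant, on plants at the 2-leaf stage.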

[8] = system: rice (Oryra sativa); experiment: Test B flooded paddy test; conditions: Flood, 0 to 100 scale where 0 is no effect and 100 is complete control, 13 to 15 d
Method in brief: as §2

[9] = system: barnyardgrass (Echinochloa crus-galli); experiment: Test B flooded paddy test; conditions: Flood, 0 to 100 scale where 0 is no effect and 100 is complete control, 13 to 15 d
Method in brief: as §2

[10] = system: sedge, umbrella (small-flower umbrella sedge, Cyperus difformis); experiment: Test B flooded paddy test; conditions: Flood, 0 to 100 scale where 0 is no effect and 100 is complete control, 13 to 15 d
Method in brief: as §2

[11] = system: giant foxtail (Setaria faberii); experiment: Test A postemergence; conditions: postemergence; for Foxtail, Giant plant response rating: 125 g ai/ha, visual injury rating on 0 to 100 scale (0 no effect, 100 complete control), approx. 10 d; for Plant response rating, Foxtail, Giant: 500 g ai/ha, 0 to 100 scale, 0 no effect, 100 complete control
Method in brief: as §1

[12] = system: corn (Zea mays); experiment: Test A postemergence; conditions: postemergence; for Corn plant response rating: 125 g ai/ha, visual injury rating on 0 to 100 scale (0 no effect, 100 complete control), approx. 10 d; for Plant response rating, Corn: 500 g ai/ha, 0 to 100 scale, 0 no effect, 100 complete control
Method in brief: as §1

[13] = system: Kochia (Kochia scoparia); experiment: Test A postemergence; conditions: postemergence; for Kochia plant response rating: 125 g ai/ha, visual injury rating on 0 to 100 scale (0 no effect, 100 complete control), approx. 10 d; for Plant response rating, Kochia: 500 g ai/ha, 0 to 100 scale, 0 no effect, 100 complete control
Method in brief: as §1

[14] = system: ragweed (common ragweed, Ambrosia elatior); experiment: Test A postemergence; conditions: postemergence; for Ragweed plant response rating: 125 g ai/ha, visual injury rating on 0 to 100 scale (0 no effect, 100 complete control), approx. 10 d; for Plant response rating, Ragweed: 500 g ai/ha, 0 to 100 scale, 0 no effect, 100 complete control
Method in brief: as §1

[15] = system: barnyardgrass (Echinochloa crus-galli); experiment: Test A postemergence; conditions: postemergence; for Barnyardgrass plant response rating: 125 g ai/ha, visual injury rating on 0 to 100 scale (0 no effect, 100 complete control), approx. 10 d; for Plant response rating, Barnyardgrass: 500 g ai/ha, 0 to 100 scale, 0 no effect, 100 complete control
Method in brief: as §1

[16] = system: Galium (catchweed bedstraw, Galium aparine); experiment: Test A postemergence; conditions: postemergence; for Galium plant response rating: 125 g ai/ha, visual injury rating on 0 to 100 scale (0 no effect, 100 complete control), approx. 10 d; for Plant response rating, Galium: 500 g ai/ha, 0 to 100 scale, 0 no effect, 100 complete control
Method in brief: as §1

[17] = system: pigweed (Amaranthus retroflexus); experiment: Test A postemergence; conditions: postemergence; for Pigweed plant response rating: 125 g ai/ha, visual injury rating on 0 to 100 scale (0 no effect, 100 complete control), approx. 10 d; for Plant response rating, Pigweed: 500 g ai/ha, 0 to 100 scale, 0 no effect, 100 complete control
Method in brief: as §1

[18] = system: wheat (Triticum aestivum); experiment: Test A postemergence; conditions: postemergence; for Wheat plant response rating: 125 g ai/ha, visual injury rating on 0 to 100 scale (0 no effect, 100 complete control), approx. 10 d; for Plant response rating, Wheat: 500 g ai/ha, 0 to 100 scale, 0 no effect, 100 complete control
Method in brief: as §1

[19] = system: ryegrass, Italian (Italian ryegrass, Lolium multiflorum); experiment: Test A postemergence; conditions: postemergence; for Ryegrass, Italian plant response rating: 125 g ai/ha, visual injury rating on 0 to 100 scale (0 no effect, 100 complete control), approx. 10 d; for Plant response rating, Ryegrass, Italian: 500 g ai/ha, 0 to 100 scale, 0 no effect, 100 complete control
Method in brief: as §1

[20] = system: blackgrass (Alopecurus myosuroides); experiment: Test A postemergence; conditions: postemergence; for Blackgrass plant response rating: 125 g ai/ha, visual injury rating on 0 to 100 scale (0 no effect, 100 complete control), approx. 10 d; for Plant response rating, Blackgrass: 500 g ai/ha, 0 to 100 scale, 0 no effect, 100 complete control
Method in brief: as §1

| Compound | Plant response rating, Foxtail, Giant [1] | Foxtail, Giant plant response rating (0 to 100 scale, 0 is no effect, 100 is complete control) [1] | Plant response rating, Kochia [2] | Kochia plant response rating (0 to 100 scale, 0 is no effect, 100 is complete control) [2] | Ragweed plant response rating (0 to 100 scale, 0 is no effect, 100 is complete control) [3] | Plant response rating, Barnyardgrass [4] | Barnyardgrass plant response rating (0 to 100 scale, 0 is no effect, 100 is complete control) [4] | Plant response rating, Pigweed [5] | Pigweed plant response rating (0 to 100 scale, 0 is no effect, 100 is complete control) [5] | Plant response rating, Ryegrass, Italian [6] | Ryegrass, Italian plant response rating (0 to 100 scale, 0 is no effect, 100 is complete control) [6] | Foxtail, Giant plant response rating [11] | Plant response rating, Foxtail, Giant [11] | Corn plant response rating [12] | Plant response rating, Corn [12] | Kochia plant response rating [13] | Plant response rating, Kochia [13] | Ragweed plant response rating [14] | Plant response rating, Ragweed [14] | Barnyardgrass plant response rating [15] | further results |
| --- | --- | --- | --- | --- | --- | --- | --- | --- | --- | --- | --- | --- | --- | --- | --- | --- | --- | --- | --- | --- | --- |
| Cc1cc(C2CN(C)C(=O)C2C(=O)Nc2ccccc2F)ccc1F (centres unmarked) [Compound 402] | 90 | 90 | 40 | 70 | 70 | 90 | 90 | 30 | 50 | 20 | 40 | 90 | 90 | 70 | 80 | 20 | 60 | 20 | 60 | 90 | Plant response rating, Ducksalad ([7]; 250 g ai/ha): 90; Plant response rating, Rice ([8]; 250 g ai/ha): 0; Plant response rating, Barnyardgrass ([9]; 250 g ai/ha): 100; Plant response rating, Sedge, Umbrella ([10]; 250 g ai/ha): 0; Plant response rating, Barnyardgrass [15]: 90; Galium plant response rating [16]: 50; Plant response rating, Galium [16]: 60; Pigweed plant response rating [17]: 40; Plant response rating, Pigweed [17]: 50; Wheat plant response rating [18]: 50; Plant response rating, Wheat [18]: 80; Ryegrass, Italian plant response rating [19]: 30; Plant response rating, Ryegrass, Italian [19]: 50; Blackgrass plant response rating [20]: 50; Plant response rating, Blackgrass [20]: 70 |
| Cc1cc(C2CN(C)C(=O)C2C(=O)Nc2cccc(F)c2F)ccc1F (centres unmarked) [Compound 403] | 90 | 90 | 70 | 80 | 60 | 90 | 90 | 30 | 60 | 20 | 70 | 90 | 90 | 70 | 90 | 40 | 60 | 0 | 30 | 90 | Plant response rating, Ragweed [3]: 50; Plant response rating, Ducksalad ([7]; 250 g ai/ha): 100; Plant response rating, Rice ([8]; 250 g ai/ha): 0; Plant response rating, Barnyardgrass ([9]; 250 g ai/ha): 75; Plant response rating, Sedge, Umbrella ([10]; 250 g ai/ha): 0; Plant response rating, Barnyardgrass [15]: 90; Galium plant response rating [16]: 50; Plant response rating, Galium [16]: 60; Pigweed plant response rating [17]: 50; Plant response rating, Pigweed [17]: 50; Wheat plant response rating [18]: 70; Plant response rating, Wheat [18]: 80; Ryegrass, Italian plant response rating [19]: 50; Plant response rating, Ryegrass, Italian [19]: 70; Blackgrass plant response rating [20]: 50; Plant response rating, Blackgrass [20]: 60 |
| Cc1cc(C2CN(C)C(=O)C2C(=O)Nc2ccccc2C(F)(F)F)ccc1F (centres unmarked) [Compound 406] | 90 | 90 | 0 | 40 | 40 | 90 | 90 | 20 | 50 | 20 | 50 | 80 | 80 | 20 | 70 | 40 | 50 | 20 | 20 | 90 | Plant response rating, Ragweed [3]: 0; Plant response rating, Ducksalad ([7]; 250 g ai/ha): 80; Plant response rating, Rice ([8]; 250 g ai/ha): 0; Plant response rating, Barnyardgrass ([9]; 250 g ai/ha): 70; Plant response rating, Sedge, Umbrella ([10]; 250 g ai/ha): 0; Plant response rating, Barnyardgrass [15]: 90; Galium plant response rating [16]: 50; Plant response rating, Galium [16]: 50; Pigweed plant response rating [17]: 20; Plant response rating, Pigweed [17]: 30; Wheat plant response rating [18]: 40; Plant response rating, Wheat [18]: 70; Ryegrass, Italian plant response rating [19]: 30; Plant response rating, Ryegrass, Italian [19]: 40; Blackgrass plant response rating [20]: 30; Plant response rating, Blackgrass [20]: 50 |
| Cc1ccc(F)c(NC(=O)C2C(=O)NCC2c2ccc(F)c(F)c2)c1 (centres unmarked) [Compound 408] | 0 | 0 | 0 | 0 | 0 | 0 | 0 | 0 | 0 | 0 | 0 | 0 | 0 | 0 | 0 | 0 | 0 | 0 | 0 | 0 | Plant response rating, Ragweed [3]: 0; Plant response rating, Ducksalad ([7]; 500 g ai/ha): 0; Plant response rating, Rice ([8]; 500 g ai/ha): 0; Plant response rating, Barnyardgrass ([9]; 500 g ai/ha): 0; Plant response rating, Sedge, Umbrella ([10]; 500 g ai/ha): 0; Plant response rating, Barnyardgrass [15]: 0; Galium plant response rating [16]: 0; Plant response rating, Galium [16]: 0; Pigweed plant response rating [17]: 0; Plant response rating, Pigweed [17]: 0; Wheat plant response rating [18]: 0; Plant response rating, Wheat [18]: 0; Ryegrass, Italian plant response rating [19]: 0; Plant response rating, Ryegrass, Italian [19]: 0; Blackgrass plant response rating [20]: 0; Plant response rating, Blackgrass [20]: 0 |
| Cc1cccc(NC(=O)C2C(=O)NCC2c2ccc(F)c(F)c2)c1F (centres unmarked) [Compound 409] | 80 | 90 | 0 | 0 | 0 | 70 | 80 | 0 | 10 | 0 | 0 | 60 | 80 | 0 | 0 | 0 | 30 | 0 | 0 | 60 | Plant response rating, Ragweed [3]: 0; Plant response rating, Ducksalad ([7]; 500 g ai/ha): 40; Plant response rating, Rice ([8]; 500 g ai/ha): 30; Plant response rating, Barnyardgrass ([9]; 500 g ai/ha): 40; Plant response rating, Sedge, Umbrella ([10]; 500 g ai/ha): 0; Plant response rating, Barnyardgrass [15]: 70; Galium plant response rating [16]: 0; Plant response rating, Galium [16]: 0; Pigweed plant response rating [17]: 0; Plant response rating, Pigweed [17]: 20; Wheat plant response rating [18]: 0; Plant response rating, Wheat [18]: 0; Ryegrass, Italian plant response rating [19]: 0; Plant response rating, Ryegrass, Italian [19]: 0; Blackgrass plant response rating [20]: 10; Plant response rating, Blackgrass [20]: 20 |
